In US6054435A, “6-O-substituted macrolides having antibacterial activity” (priority 1999, dated 2000):
Values after ≈ are worked out from the molar mass of the structure shown.

Assays:
Assay in all cases: in vitro antibacterial activity (MIC), agar dilution
Format in all cases: cell-based
Candida albicans CCH 442 = settings: organism code TT; BHI agar, 35-37° C., 20 to 24 hours; unit assumed
Protocol: (§1) Representative compounds of the present invention were assayed in vitro for antibacterial activity as follows: Twelve petri dishes containing successive aqueous dilutions of the test compound mixed with 10 mL of sterilized Brain Heart Infusion (BHI) agar (Difco 0418-01-5) were prepared. Each plate was inoculated with 1:100 (or 1:10 for slow-growing strains, such as Micrococcus and Streptococcus) dilutions of up to 32 different microorganisms, using a Steers replicator block. […] In addition, a control plate, using BHI agar containing no test compound, was prepared and incubated at the beginning and end of each test.
(§2) An additional plate containing a compound having known susceptibility patterns for the organisms being tested and belonging to the same antibiotic class as the test compound was also prepared and incubated as a further control, as well as to provide test-to-test comparability.
(§3) After incubation, each plate was visually inspected. The minimum inhibitory concentration (MIC) was defined as the lowest concentration of drug yielding no growth, a slight haze, or sparsely isolated colonies on the inoculum spot as compared to the growth control.

Escherichia coli JUHL = settings: organism code QQ; BHI agar, 35-37° C., 20 to 24 hours; unit assumed
Protocol: as §1, §2, §3

Escherichia coli SS = settings: organism code RR; BHI agar, 35-37° C., 20 to 24 hours; unit assumed
Protocol: as §1, §2, §3

[1] = system: Haemophilis Influenzae DILL AMP R; settings: organism code WW; BHI agar, 35-37° C., 20 to 24 hours; unit assumed
Protocol: as §1, §2, §3

[2] = system: Micrococcus luteus ATCC 4698; settings: organism code PP; BHI agar, 35-37° C., 20 to 24 hours; unit assumed
Protocol: as §1, §2, §3

[3] = system: Mycobacterium smegmatis ATCC 114; settings: organism code UU; BHI agar, 35-37° C., 20 to 24 hours; unit assumed
Protocol: as §1, §2, §3

[4] = system: Nocardia Asteroides ATCC9970; settings: organism code VV; BHI agar, 35-37° C., 20 to 24 hours; unit assumed
Protocol: as §1, §2, §3

[5] = system: Staphylococcus aureus 1775; settings: organism code GG; BHI agar, 35-37° C., 20 to 24 hours; unit assumed
Protocol: as §1, §2, §3

[6] = system: Staphylococcus aureus A-5278; settings: organism code CC; BHI agar, 35-37° C., 20 to 24 hours; unit assumed
Protocol: as §1, §2, §3

[7] = system: Staphylococcus aureus A5177; settings: organism code BB; BHI agar, 35-37° C., 20 to 24 hours; unit assumed
Protocol: as §1, §2, §3

[8] = system: Staphylococcus aureus ATCC 6538P; settings: organism code AA; BHI agar, 35-37° C., 20 to 24 hours; unit assumed
Protocol: as §1, §2, §3

[9] = system: Staphylococcus aureus NCTC10649M; settings: organism code EE; BHI agar, 35-37° C., 20 to 24 hours; unit assumed
Protocol: as §1, §2, §3

[10] = system: Staphylococcus epidermidis 3519; settings: organism code HH; BHI agar, 35-37° C., 20 to 24 hours; unit assumed
Protocol: as §1, §2, §3

[11] = system: Streptococcus Pneumonia 5649; settings: organism code ZZA; BHI agar, 35-37° C., 20 to 24 hours; unit assumed
Protocol: as §1, §2, §3

[12] = system: Streptococcus Pneumonia 5979; settings: organism code ZZ; BHI agar, 35-37° C., 20 to 24 hours; unit assumed
Protocol: as §1, §2, §3

[13] = system: Streptococcus Pneumonia ATCC6303; settings: organism code XX; BHI agar, 35-37° C., 20 to 24 hours; unit assumed
Protocol: as §1, §2, §3

[14] = system: Streptococcus Pneumonia GYR 1171; settings: organism code YY; BHI agar, 35-37° C., 20 to 24 hours; unit assumed
Protocol: as §1, §2, §3

[15] = system: Streptococcus agalactiae CMX 508; settings: organism code KK; BHI agar, 35-37° C., 20 to 24 hours; unit assumed
Protocol: as §1, §2, §3

[16] = system: Streptococcus bovis A-5169; settings: organism code JJ; BHI agar, 35-37° C., 20 to 24 hours; unit assumed
Protocol: as §1, §2, §3

[17] = system: Streptococcus pyogenes 930; settings: organism code MM; BHI agar, 35-37° C., 20 to 24 hours; unit assumed
Protocol: as §1, §2, §3

[18] = system: Streptococcus pyogenes EES61; settings: organism code LL; BHI agar, 35-37° C., 20 to 24 hours; unit assumed
Protocol: as §1, §2, §3

[19] = system: Streptococcus pyogenes PIU 2548; settings: organism code NN; BHI agar, 35-37° C., 20 to 24 hours; unit assumed
Protocol: as §1, §2, §3

[20] = system: Enterococcus faecium ATCC 8043; settings: organism code II; BHI agar, 35-37° C., 20 to 24 hours; unit assumed
Protocol: as §1, §2, §3

[21] = system: Staphylococcus aureus CMX 553; settings: organism code FF; BHI agar, 35-37° C., 20 to 24 hours; unit assumed
Protocol: as §1, §2, §3

[22] = system: Staphylococcus aureus CMX 642A; settings: organism code DD; BHI agar, 35-37° C., 20 to 24 hours; unit assumed
Protocol: as §1, §2, §3

SMILES | MIC (Candida albicans CCH 442) | MIC (Escherichia coli JUHL) | MIC (Escherichia coli SS) | MIC [1] | MIC [2] | MIC [3] | MIC [4] | MIC [5] | MIC [6] | MIC [7] | MIC [8] | MIC [9] | MIC [10] | MIC [11] | MIC [12] | MIC [13] | MIC [14] | MIC [15] | MIC [16] | MIC [19] | also measured
CC[C@H]1OC(=O)[C@H](C)C(=O)[C@H](C)[C@@H](O[C@@H]2O[C@H](C)C[C@H](N(C)C)[C@H]2O)[C@](C)(OCC#Cc2ccc(-c3ccccn3)s2)C[C@@H](C)C2=NCCN3C(=O)O[C@@]1(C)[C@H]3[C@H]2C [Example 35] | > 100 µg/mL | 25 µg/mL (≈ 30.4 µM) | 0.39 µg/mL (≈ 0.475 µM) | 4 µg/mL (≈ 4.87 µM) | 0.2 µg/mL (≈ 0.244 µM) | 0.2 µg/mL (≈ 0.244 µM) | 0.02 µg/mL (≈ 0.0244 µM) | > 100 µg/mL | > 100 µg/mL | 0.1 µg/mL (≈ 0.122 µM) | 0.05 µg/mL (≈ 0.0609 µM) | 0.2 µg/mL (≈ 0.244 µM) | 0.1 µg/mL (≈ 0.122 µM) | 0.25 µg/mL (≈ 0.304 µM) | 4 µg/mL (≈ 4.87 µM) | ≤ 0.004 µg/mL | ≤ 0.004 µg/mL | 0.05 µg/mL (≈ 0.0609 µM) | 0.01 µg/mL (≈ 0.0122 µM) | 0.2 µg/mL (≈ 0.244 µM) | MIC [17]: 6.2 µg/mL (≈ 7.55 µM); MIC [18]: 0.02 µg/mL (≈ 0.0244 µM)
CC[C@H]1OC(=O)[C@H](C)C(=O)[C@H](C)[C@@H](O[C@@H]2O[C@H](C)C[C@H](N(C)C)[C@H]2O)[C@](C)(OCC#Cc2ccc(-c3ccccn3)s2)C[C@@H](C)C(=O)[C@H](C)[C@H]2NC(=O)O[C@@]21C [Example 1] | – | – | 0.1 µg/mL (≈ 0.126 µM) | – | 0.1 µg/mL (≈ 0.126 µM) | – | – | – | – | – | 0.05 µg/mL (≈ 0.0628 µM) | 0.1 µg/mL (≈ 0.126 µM) | 0.1 µg/mL (≈ 0.126 µM) | – | – | – | – | – | – | 0.1 µg/mL (≈ 0.126 µM) | –
CC[C@H]1OC(=O)[C@H](C)C(=O)[C@H](C)[C@@H](O[C@@H]2O[C@H](C)C[C@H](N(C)C)[C@H]2O)[C@](C)(OCC#Cc2ccc(-c3cscn3)s2)C[C@@H](C)C(=O)[C@H](C)[C@H]2NC(=O)O[C@@]21C [Example 30] | > 100 µg/mL | 12.5 µg/mL (≈ 15.6 µM) | 0.1 µg/mL (≈ 0.125 µM) | 2 µg/mL (≈ 2.49 µM) | 0.1 µg/mL (≈ 0.125 µM) | 0.39 µg/mL (≈ 0.486 µM) | 0.01 µg/mL (≈ 0.0125 µM) | > 100 µg/mL | > 100 µg/mL | 0.02 µg/mL (≈ 0.0249 µM) | 0.02 µg/mL (≈ 0.0249 µM) | 0.05 µg/mL (≈ 0.0623 µM) | 0.05 µg/mL (≈ 0.0623 µM) | 0.25 µg/mL (≈ 0.312 µM) | 1 µg/mL (≈ 1.25 µM) | ≤ 0.004 µg/mL | ≤ 0.004 µg/mL | 0.02 µg/mL (≈ 0.0249 µM) | ≤ 0.005 µg/mL | 0.1 µg/mL (≈ 0.125 µM) | MIC [17]: 6.2 µg/mL (≈ 7.73 µM); MIC [18]: 0.02 µg/mL (≈ 0.0249 µM)
CC[C@H]1OC(=O)[C@H](C)C(=O)[C@H](C)[C@@H](O[C@@H]2O[C@H](C)C[C@H](N(C)C)[C@H]2O)[C@](C)(OCC#Cc2ccc(-c3cncc(C(=O)N(C)C)c3)s2)C[C@@H](C)C(=O)[C@H](C)[C@H]2NC(=O)O[C@@]21C [Example 11] | > 100 µg/mL | > 100 µg/mL | 0.78 µg/mL (≈ 0.9 µM) | 16 µg/mL (≈ 18.5 µM) | 0.2 µg/mL (≈ 0.231 µM) | > 12.5 µg/mL | 0.2 µg/mL (≈ 0.231 µM) | > 100 µg/mL | > 100 µg/mL | 0.2 µg/mL (≈ 0.231 µM) | 0.1 µg/mL (≈ 0.115 µM) | 0.2 µg/mL (≈ 0.231 µM) | 0.2 µg/mL (≈ 0.231 µM) | 1 µg/mL (≈ 1.15 µM) | 128 µg/mL (≈ 148 µM) | 0.03 µg/mL (≈ 0.0346 µM) | 0.03 µg/mL (≈ 0.0346 µM) | 0.05 µg/mL (≈ 0.0577 µM) | 0.01 µg/mL (≈ 0.0115 µM) | 0.39 µg/mL (≈ 0.45 µM) | MIC [20]: 0.39 µg/mL (≈ 0.45 µM); MIC [17]: > 100 µg/mL; MIC [18]: 0.02 µg/mL (≈ 0.0231 µM)
CC[C@H]1OC(=O)[C@H](C)C(=O)[C@H](C)[C@@H](O[C@@H]2O[C@H](C)C[C@H](N(C)C)[C@H]2O)[C@](C)(OCC#Cc2ccc(-c3cccnc3)s2)C[C@@H](C)C(=O)[C@H](C)[C@H]2NC(=O)O[C@@]21C [Example 2] | – | – | 0.1 µg/mL (≈ 0.126 µM) | – | 0.1 µg/mL (≈ 0.126 µM) | – | 0.05 µg/mL (≈ 0.0628 µM) | – | – | 0.05 µg/mL (≈ 0.0628 µM) | 0.05 µg/mL (≈ 0.0628 µM) | 0.05 µg/mL (≈ 0.0628 µM) | 0.05 µg/mL (≈ 0.0628 µM) | – | – | – | – | – | – | 0.1 µg/mL (≈ 0.126 µM) | MIC [20]: 0.05 µg/mL (≈ 0.0628 µM); MIC [21]: 0.05 µg/mL (≈ 0.0628 µM); MIC [22]: 0.05 µg/mL (≈ 0.0628 µM)
